Where a name gives a salt, the structure may show the parent alone.

The test system of the test is KK mice (age 4-5 months) with diabetes. The experiment in a line: Blood sugar lowering effect in KK mice with diabetes. The class given is in vivo. The conditions noted are these: Mus musculus, po, 72 h, powder diet containing 0.01% of the test compound for 3 days, plasma glucose vs control group, groups of 4 mice, read-out: Blood sugar decrease rate (%). The source says: [Test Example] Blood Sugar Lowering Effect
Blood samples were collected from the caudal vein of KK mice (age 4-5 months) with diabetes followed by measurement of their blood sugar levels. Next, after assigning the mice to groups (of 4 mice each) so that the mean blood sugar levels of each group were the same, mouse laboratory powder diet (F-1, Funabashi Farms), prepared so as to contain 0.01% of the test compound, was given to the mice for 3 days. The groups of mice that were given test compound were designated as the drug dose groups. It should be noted that a group that was given laboratory diet not containing the test compound was designated as the control group. Blood samples were collected from the caudal vein of the mice 3 days later and the glucose concentration of the plasma obtained by centrifugal separation was measured with a glucose analyzer (Glucoloader, A & T Corp.). The mean decrease of blood sugar rate (%) was determined according to the following equation.
Blood sugar decrease rate (%)=(mean blood sugar value of control group−mean blood sugar value […] of drug dose group)×100/(blood sugar value of control group)
For `Cn1c(COc2ccc(CC3SC(=O)NC3=O)cc2)nc2ccc(Oc3ccc(NC(=O)c4ccncc4)cc3)cc21` (stereo not drawn) [Example 55, N-[4-[2-[4-(2,4-Dioxothiazolidin-5-ylmethyl)phenoxymethyl]-1-methyl-1H-benzimidazol-6-yloxy]phenyl]isonicotinamide], the inhibition in vivo at 0.01 % in diet came out at 53.8%. With `Cn1c(COc2ccc(CC3SC(=O)NC3=O)cc2)nc2ccc(Oc3ccc(CCNC(=O)c4cccnc4)cc3)cc21` (stereo not drawn) [Example 63, N-[2-[4-[2-[4-(2,4-Dioxothiazolidin-5-ylmethyl)phenoxymethyl]-1-methyl-1H-benzimidazol-6-yloxy]phenyl]ethyl]nicotinamide dihydrochloride] the figure was 55.7%; with `Cn1c(COc2ccc(CC3SC(=O)NC3=O)cc2)nc2ccc(Oc3ccc(NC(=O)c4ccccc4)cc3)cc21` (stereo not drawn) [Example 53, N-[4-[2-[4-(2,4-Dioxothiazolidin-5-ylmethyl)phenoxymethyl]-1-methyl-1H-benzimidazol-6-yloxy]phenyl]benzamide], 59.6%.

For the origin of these results see patent publication US6562849B1, “Amine derivative compounds” (Sankyo Company, Limited, priority 1999, dated 2003).
